The text below walks through data of BindingDB's records for doi:10.1007/bfb0000613 (German Institute of Human Nutrition, 1998).

Each structure is given as a SMILES string. Values joined by “and” are separate entries in the source; they are usually repeats but may differ in a detail not shown here. Identical values can stand only once. *1 amine or outer side, *2 acyl side, *3 side chain or, on linkers, in order; H or OH if unused. Where a SMILES comes first, the peptide text is derived from it. Bridges are numbered along the chain shown (N, C = ends). [ ]: non-standard residue; d: D form. ξ: configuration not given here. Phe(4-CH2NHiPr) = CC(C)NCc1ccc(C[C@H](N)C(=O)O)cc1; X2 = CC(C)NCc1ccc(C[C@@H](N[*:1])C(=O)[*:2])cc1; d1Nal = N[C@H](Cc1cccc2ccccc12)C(=O)O; Thr(3ξ) = CC(O)[C@H](N)C(=O)O; ξF = NC(Cc1ccccc1)C(=O)O; ξK = NCCCCC(N)C(=O)O; ξT = CC(O)C(N)C(=O)O; Ahp = NCCCCCCC(=O)O

The target in test [1] is T1, Somatostatin receptor type 5 (Rattus norvegicus, UniProt P30938).
T1 sequence (P30938 whole entry): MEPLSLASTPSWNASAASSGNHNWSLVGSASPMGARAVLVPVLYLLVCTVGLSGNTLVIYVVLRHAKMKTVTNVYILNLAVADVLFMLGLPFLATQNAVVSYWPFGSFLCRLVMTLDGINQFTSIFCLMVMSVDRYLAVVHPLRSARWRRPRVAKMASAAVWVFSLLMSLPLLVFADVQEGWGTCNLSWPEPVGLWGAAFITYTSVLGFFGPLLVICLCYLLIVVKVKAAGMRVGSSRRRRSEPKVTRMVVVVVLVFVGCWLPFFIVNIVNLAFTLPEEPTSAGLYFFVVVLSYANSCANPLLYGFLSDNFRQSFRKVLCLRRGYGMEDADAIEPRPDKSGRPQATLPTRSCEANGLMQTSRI

In test [2] the target is Somatostatin receptor type 1 (Homo sapiens, UniProt P30872).
Chain of Somatostatin receptor type 1 (P30872 whole entry): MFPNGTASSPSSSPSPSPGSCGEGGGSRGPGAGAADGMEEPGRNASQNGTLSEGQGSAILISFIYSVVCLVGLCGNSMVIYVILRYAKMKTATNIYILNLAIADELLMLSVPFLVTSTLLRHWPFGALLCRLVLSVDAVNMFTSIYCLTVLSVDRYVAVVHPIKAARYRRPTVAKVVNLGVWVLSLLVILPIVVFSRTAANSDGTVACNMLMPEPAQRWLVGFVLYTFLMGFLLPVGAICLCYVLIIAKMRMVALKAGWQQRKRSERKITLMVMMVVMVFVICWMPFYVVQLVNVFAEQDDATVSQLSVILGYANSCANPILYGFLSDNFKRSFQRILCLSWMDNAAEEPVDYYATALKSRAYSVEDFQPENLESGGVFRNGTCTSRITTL
For test [3], the target named is Somatostatin receptor type 4 (Homo sapiens, UniProt P31391).
Chain of Somatostatin receptor type 4 (P31391 whole entry): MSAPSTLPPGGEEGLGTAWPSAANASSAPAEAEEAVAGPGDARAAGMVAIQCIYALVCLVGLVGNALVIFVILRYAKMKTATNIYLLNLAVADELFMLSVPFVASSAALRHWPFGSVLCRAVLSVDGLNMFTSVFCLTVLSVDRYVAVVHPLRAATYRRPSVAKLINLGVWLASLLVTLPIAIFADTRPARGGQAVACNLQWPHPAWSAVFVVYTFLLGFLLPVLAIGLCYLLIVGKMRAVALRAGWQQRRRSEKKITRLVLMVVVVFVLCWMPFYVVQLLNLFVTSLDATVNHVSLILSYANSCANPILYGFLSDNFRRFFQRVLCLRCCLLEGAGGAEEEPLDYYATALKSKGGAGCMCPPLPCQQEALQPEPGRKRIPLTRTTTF
The target of test [4] is Somatostatin receptor type 2 (Rattus norvegicus, UniProt P30680).
Chain of Somatostatin receptor type 2 (Rattus norvegicus, UniProt P30680) (P30680 whole entry): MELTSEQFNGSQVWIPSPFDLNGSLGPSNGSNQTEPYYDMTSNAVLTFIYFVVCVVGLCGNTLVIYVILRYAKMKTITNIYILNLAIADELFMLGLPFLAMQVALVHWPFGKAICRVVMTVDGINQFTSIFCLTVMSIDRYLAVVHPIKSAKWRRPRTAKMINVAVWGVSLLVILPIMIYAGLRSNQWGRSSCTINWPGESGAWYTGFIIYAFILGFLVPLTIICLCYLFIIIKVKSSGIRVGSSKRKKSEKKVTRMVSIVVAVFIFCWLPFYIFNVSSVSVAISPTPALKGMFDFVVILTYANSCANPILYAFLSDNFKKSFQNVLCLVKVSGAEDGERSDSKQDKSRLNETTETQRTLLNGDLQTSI
Test [5] addresses Somatostatin receptor type 3 (Rattus norvegicus, UniProt P30936).
In test [6] the target is Somatostatin receptor type 2 (Mus musculus, UniProt P30875).
Chain of Somatostatin receptor type 2 (Mus musculus, UniProt P30875) (P30875 whole entry): as the sequence (P30680 whole entry) above, with L3M, T4S, F8L, I15V, P16S, G168C, A335T counted along it
The target of test [7] is Somatostatin receptor type 5 (Homo sapiens, UniProt P35346).
Chain of Somatostatin receptor type 5 (Homo sapiens, UniProt P35346) (P35346 whole entry): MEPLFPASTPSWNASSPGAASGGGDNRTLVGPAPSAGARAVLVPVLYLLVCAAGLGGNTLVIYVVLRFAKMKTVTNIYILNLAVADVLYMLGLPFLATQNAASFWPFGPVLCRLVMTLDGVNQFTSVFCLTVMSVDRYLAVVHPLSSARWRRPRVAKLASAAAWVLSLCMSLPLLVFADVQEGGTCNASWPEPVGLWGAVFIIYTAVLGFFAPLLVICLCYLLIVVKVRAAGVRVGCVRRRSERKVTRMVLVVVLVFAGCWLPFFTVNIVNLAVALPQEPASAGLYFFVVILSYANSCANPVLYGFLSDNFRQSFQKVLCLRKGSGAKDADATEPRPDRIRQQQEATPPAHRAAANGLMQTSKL
In test [8] the target is Somatostatin receptor type 2 (Homo sapiens, UniProt P30874).
Chain of Somatostatin receptor type 2 (Homo sapiens, UniProt P30874) (P30874 whole entry): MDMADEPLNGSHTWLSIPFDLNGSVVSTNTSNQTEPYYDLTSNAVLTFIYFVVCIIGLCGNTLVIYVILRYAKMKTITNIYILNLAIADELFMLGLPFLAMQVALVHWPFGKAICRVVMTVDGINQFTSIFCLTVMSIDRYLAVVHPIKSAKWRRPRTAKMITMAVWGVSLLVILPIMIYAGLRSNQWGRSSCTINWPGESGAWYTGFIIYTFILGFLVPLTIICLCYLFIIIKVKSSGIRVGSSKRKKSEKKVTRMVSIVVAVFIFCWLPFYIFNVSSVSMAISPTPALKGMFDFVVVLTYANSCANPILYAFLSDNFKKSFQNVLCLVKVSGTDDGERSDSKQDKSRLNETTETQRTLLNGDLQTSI

Chain of Somatostatin receptor type 3 (P30936 whole entry): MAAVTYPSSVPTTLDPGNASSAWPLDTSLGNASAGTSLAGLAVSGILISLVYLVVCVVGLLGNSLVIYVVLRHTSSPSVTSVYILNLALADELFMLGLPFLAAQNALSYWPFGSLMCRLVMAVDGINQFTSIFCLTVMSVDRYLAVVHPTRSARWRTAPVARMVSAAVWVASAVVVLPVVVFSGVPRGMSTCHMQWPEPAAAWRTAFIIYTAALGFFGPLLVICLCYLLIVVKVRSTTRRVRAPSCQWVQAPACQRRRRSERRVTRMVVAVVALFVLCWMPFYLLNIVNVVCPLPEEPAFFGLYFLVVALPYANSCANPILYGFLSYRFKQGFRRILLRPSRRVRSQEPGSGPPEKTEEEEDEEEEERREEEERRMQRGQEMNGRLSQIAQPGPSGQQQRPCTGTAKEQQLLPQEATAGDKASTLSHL

Take `CC(C)C1NC(=O)C(CCCCN)NC(=O)C(Cc2c[nH]c3ccccc23)NC(=O)C(Cc2ccc(O)cc2)NC(=O)C(C)N(C)C(=O)C(Cc2ccccc2)NC1=O` (configuration not stated) [CAS_3086456]: the affinity in test [1] corresponds to a Ki of 72 nM.

Regarding `CC(O)[C@H](CO)NC(=O)[C@@H]1CSSCC(NC(=O)C(N)Cc2ccccc2)C(=O)N[C@H](Cc2ccccc2)C(=O)N[C@H](Cc2c[nH]c3ccccc23)C(=O)N[C@H](CCCCN)C(=O)N[C@H](C(C)O)C(=O)N1` (some centres not stated), affinity in test [1] was put at a Ki of 17 nM. Against the preceding compound, the Ki is about 4.2-fold lower.

Turning to `CC(C)[C@@H]1NC(=O)[C@H](CCCCN)NC(=O)[C@@H](Cc2c[nH]c3ccccc23)NC(=O)[C@H](Cc2ccc(O)cc2)NC(=O)[C@@H](NC(=O)[C@H](N)Cc2ccccc2)CSSC[C@@H](C(=O)N[C@@H](Cc2c[nH]c3ccccc23)C(N)=O)NC1=O` [CAS_71306] (H-[dF]CY[dW]KVCW-NH2; disulfide 2-7), the Ki – broadly, the dissociation constant of the complex between target and ligand, obtained from inhibition or displacement – turned out to be 481 nM in test [2], 351 nM in test [3], 0.85 nM in test [4] and 87 nM in test [5].

On to `CSCC[C@H](NC(=O)[C@H](C)NC(=O)[C@@H]1CCCN1C(=O)[C@H](CC(N)=O)NC(=O)[C@H](CO)NC(=O)[C@H](CC(N)=O)NC(=O)[C@H](C)NC(=O)[C@@H](N)CO)C(=O)N[C@@H](C)C(=O)N1CCC[C@H]1C(=O)N[C@@H](CCCNC(=N)N)C(=O)N[C@@H](CCC(=O)O)C(=O)N[C@@H](CCCNC(=N)N)C(=O)N[C@@H](CCCCN)C(=O)N[C@@H](C)C(=O)NCC(=O)N[C@H]1CSSC[C@@H](C(=O)O)NC(=O)[C@H](CO)NC(=O)[C@H]([C@@H](C)O)NC(=O)[C@H](Cc2ccccc2)NC(=O)[C@H]([C@@H](C)O)NC(=O)[C@H](CCCCN)NC(=O)[C@H](Cc2c[nH]c3ccccc23)NC(=O)[C@H](Cc2ccccc2)NC(=O)[C@H](Cc2ccccc2)NC(=O)[C@H](CC(N)=O)NC(=O)[C@H](CCCCN)NC1=O` [L-Ser-L-Ala-L-Asn-L-Ser-L-Asn-L-Pro-L-Ala-L-Met-L-Ala-L-Pro-L-Arg-L-Glu-L-Arg-L-Lys-L-Ala-Gly-L-Cys(1)-L-Lys-L-Asn-L-Phe-L-Phe-L-Trp-L-Lys-L-Thr-L-Phe-L-Thr-L-Ser-L-Cys(1)-OH], for which, in test [5], the inhibition constant Ki was 0.81 nM.

Turning to `CC(O)[C@H]1NC(=O)[C@H](CCCCN)NC(=O)[C@H](Cc2c[nH]c3ccccc23)NC(=O)[C@H](Cc2ccccc2)NC(=O)[C@@H](Cc2ccccc2)NC(=O)[C@H](N)CSSC[C@H](C(N)=O)NC(=O)[C@H](Cc2ccccc2)NC1=O` (some centres not stated), in test [1], the inhibitory constant (Ki) was found to be 3.4 nM.

For `CC(C)NCc1ccc(C[C@H]2NC(=O)[C@H](Cc3c[nH]c4ccccc34)NC(=O)C(Cc3ccccc3)NC(=O)C(Cc3ccccc3)NC(=O)C(CCCCN)NC(=O)[C@H](N)CSSC[C@H](C(=O)O)NC(=O)[C@@H](CO)NC(=O)[C@H](C(C)O)NC(=O)[C@@H](Cc3ccccc3)NC(=O)C(C(C)O)NC2=O)cc1` (some centres not stated) [CH-275] (H-[dC][ξK][ξF][ξF]W[X2][ξT][dF][Thr(3ξ)][dS][dC]-OH; disulfide 1-11), the inhibition constant Ki in test [1] stood at 632 nM.

`C[C@@H](O)[C@@H]1NC(=O)[C@H](CCCCN)NC(=O)[C@@H](Cc2c[nH]c3ccccc23)NC(=O)[C@H](Cc2ccccc2)NC(=O)[C@H](Cc2ccccc2)NC(=O)[C@H](N)CSSC[C@H](C(N)=O)NC(=O)[C@H](Cc2ccccc2)NC1=O`: the Ki in test [2] was 582 nM; in test [4] it was 101 nM; in test [5] it was 4.1 nM; in test [6], 1.49 nM and 11 nM; in test [7], 2.18 nM.

In the case of `C[C@@H](O)[C@H](NC(=O)[C@H](Cc1ccccc1)NC(=O)[C@@H](NC(=O)[C@H](CCCCN)NC(=O)[C@@H](Cc1c[nH]c2ccccc12)NC(=O)[C@H](Cc1ccccc1)NC(=O)[C@H](Cc1ccccc1)NC(=O)[C@H](N)Cc1ccccc1)[C@@H](C)O)C(N)=O` [CAS_133073-82-2] (H-[dF]FF[dW]KTFT-NH2), the inhibition constant Ki in test [4] is 69 nM; in test [5], 3.5 nM; in test [6], 11.9 nM and 5.58 nM; in test [1], 2.4 nM.

On to `CC(O)[C@@H](NC(=O)[C@H](CCCCN)NC(=O)[C@@H](Cc1c[nH]c2ccccc12)NC(=O)[C@H](Cc1ccccc1)NC(=O)C(Cc1ccccc1)NC(=O)C(N)CS)C(=O)NC(Cc1ccccc1)C(=O)NC(CS)C(N)=O` (some centres not stated) [BIM 23313], for which the Ki amounted to 151 nM in test [2]; 55.3 nM in test [3]; 45 nM in test [4]; 11.2 nM in test [5]; 9.88 nM in test [1]; 0.27 nM in test [7].

As for `CC(C)NCc1ccc(C[C@@H]2NC(=O)[C@@H](Cc3c[nH]c4ccccc34)NC(=O)[C@H](Cc3ccccc3)NC(=O)[C@H](Cc3ccccc3)NC(=O)[C@H](CCCCN)NC(=O)[C@@H](N)CSSC[C@@H](C(=O)O)NC(=O)[C@H](CO)NC(=O)[C@H]([C@@H](C)O)NC(=O)[C@H](Cc3ccccc3)NC(=O)[C@H]([C@@H](C)O)NC2=O)cc1` [CH-275] (H-CKFF[dW][Phe(4-CH2NHiPr)]TFTSC-OH; disulfide 1-11), the inhibition constant (Ki) is 1.8 nM and 4.9 nM in test [2]; 874 nM in test [3]; 1000 nM in test [8]; 1000 nM in test [6].

As for `CC(O)[C@@H](NC(=O)[C@H](CCCCN)NC(=O)[C@@H](Cc1c[nH]c2ccccc12)NC(=O)[C@H](Cc1ccc(O)cc1)NC(=O)C(Cc1ccccc1)NC(=O)C(N)CS)C(=O)NC(Cc1ccccc1)C(=O)NC(CS)C(N)=O` (some centres not stated) [BIM 23295], the Ki in test [2] came out at 86.8 nM; in test [3], 3.36 nM; in test [4], 57 nM; in test [5] it was 5.7 nM; in test [1] it was 0.65 nM; in test [7], 0.34 nM.

For the compound `C[C@@H](O)[C@@H]1NC(=O)[C@H](CCCCN)NC(=O)[C@@H](Cc2c[nH]c3ccccc23)NC(=O)[C@H](Cc2c[nH]c3ccccc23)NC(=O)[C@H](Cc2ccccc2)NC(=O)CCCCCCNC(=O)[C@H](Cc2ccccc2)NC1=O` [L-362855] (cyclo([Ahp]FW[dW]KTF)), the inhibitory constant (Ki) in test [3] amounted to 467 nM; in test [4], 12 nM; in test [5], 33 nM; in test [1] it was 51 nM; in test [7], 0.76 nM.

In the case of `CC[C@@H]1NC(=O)[C@H](CCCCN)NC(=O)[C@@H](Cc2c[nH]c3ccccc23)NC(=O)[C@H](Cc2ccc(O)cc2)NC(=O)[C@@H](NC(=O)[C@H](N)Cc2ccccc2)CSSC[C@@H](C(=O)N[C@H](C(N)=O)[C@@H](C)O)NC1=O` [D-Phe-L-Cys(1)-L-Tyr-D-Trp-L-Lys-L-Abu-L-Cys(1)-L-Thr-NH2], the Ki in test [4] is 0.57 nM; in test [5] it was 92 nM; in test [1] it was 14 nM.

Regarding `CC(C)[C@@H]1NC(=O)[C@H](CCCCN)NC(=O)[C@@H](Cc2c[nH]c3ccccc23)NC(=O)[C@H](Cc2ccc(O)cc2)NC(=O)[C@@H](NC(=O)[C@H](N)Cc2ccc3ccccc3c2)CSSC[C@@H](C(=O)N[C@H](C(N)=O)[C@@H](C)O)NC1=O` [3-(2-Naphtyl)-D-Ala-L-Cys(1)-L-Tyr-D-Trp-L-Lys-L-Val-L-Cys(1)-L-Thr-NH2], the inhibitory constant (Ki) is 1.47 nM in test [4], 115 nM in test [5] and 23 nM in test [1].

Take `CC(C)C1NC(=O)C(CCCCN)NC(=O)C(Cc2c[nH]c3ccccc23)NC(=O)C(Cc2ccc(O)cc2)NC(=O)C(NC(=O)C(N)Cc2ccccc2)CSSCC(C(=O)NC(Cc2c[nH]c3ccccc23)C(N)=O)NC1=O` (configuration not stated) [CAS_71306] (H-FCYWKVCW-NH2; disulfide 2-7; configuration not given here): the Ki in test [1] is 6.8 nM.

In test [1], `CC(C)[C@H](NC(=O)[C@H](CCCCN)NC(=O)[C@@H](Cc1c[nH]c2ccccc12)NC(=O)[C@H](Cc1ccc(O)cc1)NC(=O)[C@H](Cc1ccccc1)NC(=O)[C@@H](N)Cc1ccccc1)C(=O)N[C@@H](Cc1ccccc1)C(=O)N[C@H](Cc1cccc2ccccc12)C(N)=O` [BIM 23056] (H-FFY[dW]KVF[d1Nal]-NH2) showed a Ki of 536 nM.

Regarding `C[C@@H](O)[C@@H]1NC(=O)[C@H](CCCCN)NC(=O)[C@@H](Cc2c[nH]c3ccccc23)NC(=O)[C@H](Cc2ccccc2)NC(=O)[C@@H](NC(=O)[C@H](N)Cc2ccccc2)CSSC[C@@H](C(=O)N[C@H](CO)[C@@H](C)O)NC1=O`, the inhibitory constant (Ki) in test [5] was found to be 14 nM. That is a double-digit nanomolar value.

With `CC(C)[C@H](NC(=O)[C@H](CCCCN)NC(=O)[C@@H](Cc1c[nH]c2ccccc12)NC(=O)[C@H](Cc1ccc(O)cc1)NC(=O)[C@H](Cc1ccccc1)NC(=O)[C@H](N)Cc1ccccc1)C(=O)N[C@@H](Cc1ccccc1)C(=O)N[C@H](Cc1cccc2ccccc12)C(N)=O` [BIM 23056] (H-[dF]FY[dW]KVF[d1Nal]-NH2), the Ki in test [2] is 692 nM; in test [3] it was 174 nM; in test [4], 3400 nM; in test [5], 272 nM; in test [6] it was 132 nM; in test [7] it was 12 nM.

Turning to `CC(C)[C@@H]1NC(=O)[C@H](CCCCN)NC(=O)[C@@H](Cc2c[nH]c3ccccc23)NC(=O)[C@H](Cc2ccc(O)cc2)NC(=O)[C@H](C)N(C)C(=O)[C@H](Cc2ccccc2)NC1=O` [CAS_3086456], the Ki in test [4] was 0.48 nM; in test [5], 45 nM; in test [7], 15.5 nM.
